Source: the supplement of paper PMC10307832

Experiments:
Assay in all cases: relative viability (nuclei count vs DMSO), 5 days (fraction); higher = more cells survive
Tozasertib = compound: Cc1cc(Nc2cc(N3CCN(C)CC3)nc(Sc3ccc(NC(=O)C4CC4)cc3)n2)n[nH]1 [Tozasertib]
Procedure, shortened: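 In 1536-well plates, lung cancer cell lines rested overnight at 37 °C before five library-drug doses (not always all listed), √10 apart, were pinned onto vehicle-anchored plates. Nuclei were counted with MetaXpress from 4× Hoechst images taken after 5 days without medium change. Viability compares treated-well with vehicle-well nuclei as a median over plates, and plates needed control CV below 25% plus at least one doubling to pass.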

Tozasertib + Alpelisib = compound: Cc1cc(Nc2cc(N3CCN(C)CC3)nc(Sc3ccc(NC(=O)C4CC4)cc3)n2)n[nH]1 [Tozasertib] + Cc1nc(NC(=O)N2CCC[C@H]2C(N)=O)sc1-c1ccnc(C(C)(C)C(F)(F)F)c1 [Alpelisib] (partner 2 µM)
Procedure, shortened: (§1)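 For relative viability, nuclei counts in treated wells were divided by those in vehicle wells. Lung cancer cell lines had been pin-tool dosed in 1536-well plates the day after seeding and cultured for 5 days, then fixed and stained in one step (final 0.05% Triton X-100, 1% formaldehyde, 1 ug/ml Hoechst) and imaged at 4×. Doses were one drug alone or a fixed anchor-drug dose plus five library-drug doses (not always all listed) in √10 steps, and values are duplicate-plate medians.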

Tozasertib + Linsitinib = compound: Cc1cc(Nc2cc(N3CCN(C)CC3)nc(Sc3ccc(NC(=O)C4CC4)cc3)n2)n[nH]1 [Tozasertib] + C[C@]1(O)C[C@@H](c2nc(-c3ccc4ccc(-c5ccccc5)nc4c3)c3c(N)nccn32)C1 [Linsitinib] (partner 1 µM)
Procedure, shortened: as §1

Tozasertib + Navitoclax = compound: Cc1cc(Nc2cc(N3CCN(C)CC3)nc(Sc3ccc(NC(=O)C4CC4)cc3)n2)n[nH]1 [Tozasertib] + CC1(C)CCC(c2ccc(Cl)cc2)=C(CN2CCN(c3ccc(C(=O)NS(=O)(=O)c4ccc(N[C@H](CCN5CCOCC5)CSc5ccccc5)c(S(=O)(=O)C(F)(F)F)c4)cc3)CC2)C1 [Navitoclax] (partner 0.5 µM)
Procedure, shortened: as §1

Tozasertib + AZD7762 = compound: Cc1cc(Nc2cc(N3CCN(C)CC3)nc(Sc3ccc(NC(=O)C4CC4)cc3)n2)n[nH]1 [Tozasertib] + NC(=O)Nc1cc(-c2cccc(F)c2)sc1C(=O)N[C@H]1CCCNC1 [AZD7762] (partner 0.2 µM)
Procedure, shortened: as §1

Tozasertib + Olaparib = compound: Cc1cc(Nc2cc(N3CCN(C)CC3)nc(Sc3ccc(NC(=O)C4CC4)cc3)n2)n[nH]1 [Tozasertib] + O=C(c1cc(Cc2n[nH]c(=O)c3ccccc23)ccc1F)N1CCN(C(=O)C2CC2)CC1 [Olaparib] (partner 8 µM)
Procedure, shortened: as §1

Tozasertib + Pictilisib = compound: Cc1cc(Nc2cc(N3CCN(C)CC3)nc(Sc3ccc(NC(=O)C4CC4)cc3)n2)n[nH]1 [Tozasertib] + CS(=O)(=O)N1CCN(Cc2cc3nc(-c4cccc5[nH]ncc45)nc(N4CCOCC4)c3s2)CC1 [Pictilisib] (partner 1 µM)
Procedure, shortened: as §1

Tozasertib + Bortezomib = compound: Cc1cc(Nc2cc(N3CCN(C)CC3)nc(Sc3ccc(NC(=O)C4CC4)cc3)n2)n[nH]1 [Tozasertib] + CC(C)C[C@H](NC(=O)[C@H](Cc1ccccc1)NC(=O)c1cnccn1)B(O)O [Bortezomib] (partner 0.002 µM)
Procedure, shortened: as §1

Tozasertib + Lapatinib = compound: Cc1cc(Nc2cc(N3CCN(C)CC3)nc(Sc3ccc(NC(=O)C4CC4)cc3)n2)n[nH]1 [Tozasertib] + CS(=O)(=O)CCNCc1ccc(-c2ccc3ncnc(Nc4ccc(OCc5cccc(F)c5)c(Cl)c4)c3c2)o1 [Lapatinib] (partner 2 µM)
Procedure, shortened: as §1

Tozasertib + Crizotinib = compound: Cc1cc(Nc2cc(N3CCN(C)CC3)nc(Sc3ccc(NC(=O)C4CC4)cc3)n2)n[nH]1 [Tozasertib] + C[C@@H](Oc1cc(-c2cnn(C3CCNCC3)c2)cnc1N)c1c(Cl)ccc(F)c1Cl [Crizotinib] (partner 1 µM)
Procedure, shortened: as §1

Tozasertib + Foretinib = compound: Cc1cc(Nc2cc(N3CCN(C)CC3)nc(Sc3ccc(NC(=O)C4CC4)cc3)n2)n[nH]1 [Tozasertib] + COc1cc2c(Oc3ccc(NC(=O)C4(C(=O)Nc5ccc(F)cc5)CC4)cc3F)ccnc2cc1OCCCN1CCOCC1 [Foretinib] (partner 0.25 µM)
Procedure, shortened: as §1

NCI-H1703
relative viability (Tozasertib; 0.004 µM): 1.04 | relative viability (Tozasertib; 0.01265 µM): 0.857 | relative viability (Tozasertib; 0.04 µM): 1.21 | relative viability (Tozasertib; 0.1265 µM): 0.556 | relative viability (Tozasertib + Alpelisib; first compound 0.004 µM): 0.364 | relative viability (Tozasertib + Alpelisib; first compound 0.01265 µM): 0.357 | relative viability (Tozasertib + Alpelisib; first compound 0.04 µM): 0.445 | relative viability (Tozasertib + Alpelisib; first compound 0.1265 µM): 0.209 | relative viability (Tozasertib + Linsitinib; first compound 0.004 µM): 1.26 | relative viability (Tozasertib + Linsitinib; first compound 0.01265 µM): 0.833 | relative viability (Tozasertib + Linsitinib; first compound 0.04 µM): 0.808 | relative viability (Tozasertib + Linsitinib; first compound 0.1265 µM): 0.626 | relative viability (Tozasertib + Navitoclax; first compound 0.004 µM): 1.35 | relative viability (Tozasertib + Navitoclax; first compound 0.01265 µM): 1.14 | relative viability (Tozasertib + Navitoclax; first compound 0.04 µM): 1.26 | relative viability (Tozasertib + Navitoclax; first compound 0.1265 µM): 0.366 | relative viability (Tozasertib + AZD7762; first compound 0.004 µM): 0.0927 | relative viability (Tozasertib + AZD7762; first compound 0.04 µM): 0.126 | relative viability (Tozasertib + AZD7762; first compound 0.1265 µM): 0.12 | relative viability (Tozasertib + Olaparib; first compound 0.004 µM): 0.492 | relative viability (Tozasertib + Olaparib; first compound 0.01265 µM): 0.391 | relative viability (Tozasertib + Olaparib; first compound 0.04 µM): 0.476 | relative viability (Tozasertib + Olaparib; first compound 0.1265 µM): 0.45 | relative viability (Tozasertib + Pictilisib; first compound 0.004 µM): 0.287 | relative viability (Tozasertib + Pictilisib; first compound 0.01265 µM): 0.221 | relative viability (Tozasertib + Pictilisib; first compound 0.04 µM): 0.248 | relative viability (Tozasertib + Pictilisib; first compound 0.1265 µM): 0.23 | relative viability (Tozasertib + Bortezomib; first compound 0.004 µM): 0.41 | relative viability (Tozasertib + Bortezomib; first compound 0.01265 µM): 0.29 | relative viability (Tozasertib + Bortezomib; first compound 0.04 µM): 0.401 | relative viability (Tozasertib + Bortezomib; first compound 0.1265 µM): 0.222 | relative viability (Tozasertib + Lapatinib; first compound 0.004 µM): 1.4 | relative viability (Tozasertib + Lapatinib; first compound 0.01265 µM): 0.918 | relative viability (Tozasertib + Lapatinib; first compound 0.04 µM): 1.11 | relative viability (Tozasertib + Lapatinib; first compound 0.1265 µM): 0.301 | relative viability (Tozasertib + Crizotinib; first compound 0.004 µM): 1.58 | relative viability (Tozasertib + Crizotinib; first compound 0.01265 µM): 0.848 | relative viability (Tozasertib + Crizotinib; first compound 0.04 µM): 0.318 | relative viability (Tozasertib + Crizotinib; first compound 0.1265 µM): 0.24 | relative viability (Tozasertib + Foretinib; first compound 0.004 µM): 0.36 | relative viability (Tozasertib + Foretinib; first compound 0.01265 µM): 0.409 | relative viability (Tozasertib + Foretinib; first compound 0.04 µM): 0.337 | relative viability (Tozasertib + Foretinib; first compound 0.1265 µM): 0.327
